The record followed here is PubChem BioAssay AID732 (Emory University Molecular Libraries Screening Center, 2007).

Where “and” joins values, the source holds several entries; their conditions need not be identical. Equal values may be shown once. Calls of active or inactive are those of the source. How the calls were made is not given here.

This assay relates to in vivo angiogenesis, blood vessel count. In words: angiogenesis inhibition in living animals, in vivo study, HTS (AID 732).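 Further: zebrafish embryos dosed at one day post fertilization; 0% = reference inhibitor and 100% = plate mean.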 Conditions: hits give low values;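 tested at 30 µM in the well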.

Regarding `CSc1nc(N)c2ncn([C@@H]3O[C@H](COP(=O)(O)OP(=O)(O)OP(=O)(O)O)[C@H](O)C3O)c2n1` (stereo partly drawn), the vessel count % control is 105% (inactive).

Turning to `N[C@H](C(=O)O)c1cc(O)cc(O)c1`, the vessel count % control is 108% (inactive).

With `O=C(O)C1=CCCNC1`, the vessel count % control was 114% (inactive).

In the case of `CCCN(CCC)CCc1ccc(O)c(O)c1`, the vessel count % control is 86.9% (inactive).

For the compound `Cc1cc(C(C)(C)C)cc(C)c1CC1=NCCN1`, the vessel count % control is 101% (inactive).

On to `CCc1c(C(=O)OC)ncc2[nH]c3cc(OC)c(OC)cc3c12`, for which the vessel count % control was 129% (inactive).

With `CCOC(=O)c1cnc2c(cnn2CC)c1NN=C(C)C`, the vessel count % control is 108% (inactive).

`N=C(N)SCCc1cccc(CCSC(=N)N)c1`: the vessel count % control is 106% (inactive).

Turning to `Cn1c(=O)c2[nH]c(-c3ccccc3)nc2n(C)c1=O`, the vessel count % control was 117% (inactive).

For `CN1CCc2cc(NC(=O)Nc3cccnc3)ccc21`, the vessel count % control was 86.6% (inactive).

For the compound `CCCn1c(=O)c2[nH]c(C3CCCC3)nc2n(CCC)c1=O`, the vessel count % control was 78.9% (inactive).

With `O=c1[nH]oc2c1CCNC2`, the vessel count % control was 103% (inactive).

As for `O=C1CCc2cc(OCCCCc3nnnn3C3CCCCC3)ccc2N1`, the vessel count % control was 124% (inactive).

As to `COc1ccc(Cl)cc1C(=O)NCCc1ccc(S(=O)(=O)NC(=O)NC2CCCCC2)cc1`, the vessel count % control is 94.8% (inactive).

Take `C#CCN1C(C)=C(C(=O)OC)C(c2cccc([N+](=O)[O-])c2)C(C(=O)OCC)=C1C` (stereo not drawn): the vessel count % control is 132% (inactive).

Consider `CCn1cc(C(=O)O)c(=O)c2ccc(C)nc21`, for which the vessel count % control was 135% (inactive).

As to `N[C@@H](Cc1ccc(O)c(O)c1)C(=O)O`, the vessel count % control is 118% (inactive).

With `O=Nc1ccc2oc(=O)ccc2c1`, the vessel count % control is 95% (inactive).

In the case of `O=C(Nc1cc(C(=O)Nc2ccc(S(=O)(=O)O)cc2S(=O)(=O)O)cc(C(=O)Nc2ccc(S(=O)(=O)O)cc2S(=O)(=O)O)c1)Nc1cc(C(=O)Nc2ccc(S(=O)(=O)O)cc2S(=O)(=O)O)cc(C(=O)Nc2ccc(S(=O)(=O)O)cc2S(=O)(=O)O)c1`, the vessel count % control is 118% (inactive).

For the compound `CC[N+](CC)(CC)CC`, the vessel count % control was 112% (inactive).

As to `S=C(S)OC1CC2CC1C1CCCC21` (stereo not drawn), the vessel count % control is 86.8% (inactive).

For `CC(=O)OCC(=O)[C@@]1(O)CC[C@H]2[C@@H]3CCC4=CC(=O)CC[C@]4(C)[C@H]3C(=O)C[C@@]21C`, the vessel count % control was 97.3% (inactive).

`COc1cc2nc(N3CCN(C(=O)OCc4ccccc4)C(C(=O)NC(C)(C)C)C3)nc(N)c2cc1OC` (stereo not drawn): the vessel count % control was 104% (inactive).

`NCCCNCCSP(=O)(O)O`: the vessel count % control is 93.3% (inactive).

`O=c1onc2cnc3ccccc3n12`: the vessel count % control was 95.4% (inactive).

Turning to `O=Nc1c(-c2c(O)[nH]c3c(Cl)cc(Cl)cc23)[nH]c2ccc(Br)cc12`, the vessel count % control was 126% (inactive).

On to `Cn1ccnc1`, for which the vessel count % control is 109% (inactive).

For the compound `CN1C2CCC1CC(OC(c1ccccc1)c1ccc(Cl)cc1)C2` (stereo not drawn), the vessel count % control was 98.7% (inactive).

Regarding `Nc1ccc2c3c(cccc13)C(=O)NC2=O`, the vessel count % control is 0% (inactive).

Regarding `Cc1nc(N=Nc2cc(S(=O)(=O)O)c3cc([N+](=O)[O-])cc(S(=O)(=O)O)c3c2)c(COP(=O)(O)O)c(C=O)c1O`, the vessel count % control is 93.5% (inactive).

Regarding `O=C(O)/C(=C/c1c(C(=O)O)[nH]c2cc(Cl)cc(Cl)c12)c1ccccc1`, the vessel count % control was 108% (inactive).

Regarding `CC(C)NC[C@H](O)c1ccc(O)c(O)c1`, the vessel count % control was 98.1% (inactive) and 72.7% (inactive).

Take `O=C(O)[C@@H]1C[C@@H](C(=O)O)N1`: the vessel count % control is 99.6% (inactive).

Turning to `COc1ccccc1N1CCN(CCCCN2C(=O)c3ccccc3C2=O)CC1`, the vessel count % control is 117% (inactive).

On to `N#CC(Cc1ccc(O)c(O)c1)C(=O)N1CCc2ccccc21` (stereo not drawn), for which the vessel count % control is 132% (inactive).

Take `CC(C[N+](C)(C)C)OC(N)=O` (stereo not drawn): the vessel count % control is 91.7% (inactive).

With `COC(=O)C(C)(N)Cc1ccc(O)cc1` (stereo not drawn), the vessel count % control is 123% (inactive).

With `COCCCC/C(=N\OCCN)c1ccc(C(F)(F)F)cc1`, the vessel count % control is 145% (inactive).

For `COc1ccccc1N1CCN(CC(O)COc2cccc3ccccc23)CC1` (stereo not drawn), the vessel count % control was 91.2% (inactive).

As to `CC(=O)NCCc1ccc(O)c(O)c1`, the vessel count % control is 105% (inactive).

For the compound `CN1[C@@H](CC(=O)c2ccccc2)CCC[C@H]1C[C@H](O)c1ccccc1`, the vessel count % control was 107% (inactive).

Turning to `NC(=O)CN1CCCC1=O`, the vessel count % control is 99.2% (inactive).

As for `CC(C)NC[C@@H](O)COc1ccc(CC(N)=O)cc1`, the vessel count % control was 94.2% (inactive).

Turning to `NC1(C(=O)O)CCc2cc(C(=O)O)ccc21` (stereo not drawn), the vessel count % control is 79.6% (inactive).

As to `CC(C)=CCC/C(C)=C/CC/C(C)=C/CSc1ccccc1C(=O)O`, the vessel count % control was 78.4% (inactive).

As to `O=C(O)[C@@H]1C[C@H](C(=O)O)N1`, the vessel count % control was 59.7% (inactive).

For the compound `COc1ccc2[nH]cc(CCNC(C)=O)c2c1`, the vessel count % control was 76.5% (inactive).

Turning to `C[N+]1(CCCCC[N+]2(C)CCCC2)CCCC1`, the vessel count % control is 114% (inactive).

For the compound `C[C@]12C=CC(=O)C=C1CC[C@H]1[C@@H]3C[C@@H](O)[C@](O)(C(=O)CO)[C@@]3(C)C[C@H](O)[C@@]12F`, the vessel count % control was 129% (inactive).

`CN1C[C@@H](CS(=O)(=O)N(C)C)C[C@@H]2c3cccc4c3c(cn4C)C[C@H]21`: the vessel count % control was 103% (inactive).

On to `NC(N)=NC(N)=Nc1cccc(Cl)c1`, for which the vessel count % control was 103% (inactive).

In the case of `Fc1ccc(CN(C2=NCCN2)c2c(Cl)cccc2Cl)cc1`, the vessel count % control was 92.2% (inactive).

`Clc1ccc(C(c2ccc(Cl)cc2)n2cc[n+](CC(OCc3ccc(Cl)cc3Cl)c3ccc(Cl)cc3Cl)c2)cc1` (stereo not drawn): the vessel count % control was 0% (inactive).

For `CCCCCCCCCCC/C=C\C(C)(C)/C=C\CCCC(=O)O`, the vessel count % control was 79.5% (inactive).

Take `NCCCS(=O)(=O)O`: the vessel count % control is 144% (inactive).

`CC1CCN(CC[C@H]2CCCN2S(=O)(=O)c2cccc(O)c2)CC1`: the vessel count % control is 95.5% (inactive).

On to `Cc1cn[nH]c1`, for which the vessel count % control is 87.3% (inactive).

Turning to `COc1cc(C(O)CO)ccc1OS(=O)(=O)O` (stereo not drawn), the vessel count % control was 93.6% (inactive).

In the case of `O=C(O)C1=CCNCC1`, the vessel count % control is 131% (inactive).

In the case of `Nc1ccc(S(=O)(=O)Nc2ccnn2-c2ccccc2)cc1`, the vessel count % control was 122% (inactive).

As for `CC(C)COC(=O)OCN1C(=O)CN(CCN2CC(=O)N(COC(=O)OCC(C)C)C(=O)C2)CC1=O`, the vessel count % control is 104% (inactive).

`O=C1NCN(c2ccccc2)C12CCN(CC1COc3ccccc3O1)CC2` (stereo not drawn): the vessel count % control was 94.6% (inactive).

Turning to `CC(C)N(CCC(=O)c1ccc2ccccc2c1)Cc1ccccc1`, the vessel count % control was 0% (inactive).
